For 16 compounds, IC50 and concentration results are on record in patent US12187713B2, “Immunomodulators, compositions and methods thereof” (Betta Pharmaceuticals Co., Ltd, priority 2019, dated 2025).

The target of one data set is PD-1/PD-L1 (Homo sapiens (Human), UniProt Q9NZQ7). The data set is described as follows: PD-1/PD-L1 Binding Assay (Alphascreen). Summed up: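 PD-1/PD-L1 binding detected by anti-6×His acceptor and streptavidin donor beads after 120 min in the dark at 25 °C. Beforehand, the two proteins were incubated 15 min at 25 °C with inhibitor at 0.015–300 nM (1% DMSO). IC50 comes from a log concentration–response curve.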

Data set [1] is described as follows: Pharmacokinetic Assay, single oral dose 5 mg/kg (Table 12). It counts as in vivo. The settings on record: mouse, plasma concentration, C57 female mice, single oral dose 5 mg/kg. The essentials: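 Adult female C57 mice (n=3) got one intragastric dose of 5 mg/kg in 15% DMSO, 10% Kolliphor HS 15, 75% saline. Retro-orbital blood was taken at 30 min, 2 h and 4 h into K2-EDTA. Plasma levels were measured by LC-MS/MS.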

Where only a bound is given, the exact number is not on record here.

PD-1/PD-L1, sequence (Q9NZQ7 19-238): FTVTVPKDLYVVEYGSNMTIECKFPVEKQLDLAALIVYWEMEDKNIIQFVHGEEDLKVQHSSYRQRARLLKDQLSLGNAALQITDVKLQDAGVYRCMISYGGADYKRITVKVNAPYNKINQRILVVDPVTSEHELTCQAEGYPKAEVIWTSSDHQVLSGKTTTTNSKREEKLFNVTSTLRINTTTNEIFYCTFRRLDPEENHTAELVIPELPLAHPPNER

Consider `Cc1c(-c2cnc(N3CCCC3)nc2)cccc1-c1cccc(-c2nc3cc(CN4CCC[C@H]4C(=O)O)c(OC(F)F)cc3o2)c1C` [Example 283, ((6-(difluoromethoxy)-2-(2,2′-dimethyl-3′-(2-(pyrrolidin-1-yl)pyrimidin-5-yl)-[1,1′-biphenyl]-3-yl)benzo[d]oxazol-5-yl)methyl)-L-proline], for which the IC50 on PD-1/PD-L1 (range symbols) lay in the range of 5 to 50 nM. Besides, in data set [1], the concentration at 0.5 h was 522 ng/mL, the concentration at 2 h is 1170 ng/mL and the concentration at 4 h was 965 ng/mL.
In turn, `Cc1nc(-c2cccc(-c3cccc(-c4nc5cc(CN6CCC[C@H]6C(=O)O)c(OC(F)F)cc5o4)c3C)c2C)oc1CN1CCCC1` [Example 304, ((6-(difluoromethoxy)-2-(2,2′-dimethyl-3′-(4-methyl-5-(pyrrolidin-1-ylmethyl)oxazol-2-yl)-[1,1′-biphenyl]-3-yl)benzo[d]oxazol-5-yl)methyl)-L-proline] showed an IC50 on PD-1/PD-L1 (numeric values) of 27 nM. For the same compound, in data set [1], the concentration at 0.5 h is 131 ng/mL, the concentration at 2 h amounted to 150 ng/mL and the concentration at 4 h turned out to be 74.2 ng/mL.
The corresponding values for `Cc1c(-c2nc3cc(CN4CCC(F)C4)c(OC(F)F)cc3o2)cccc1-c1cccc(-c2nc3cc(CN4CCC[C@H]4C(=O)O)c(OC(F)F)cc3o2)c1C` (stereo partly drawn) [Example 10, ((6-(difluoromethoxy)-2-(3′-(6-(difluoromethoxy)-5-((3-fluoropyrrolidin-1-yl)methyl)benzo[d]oxazol-2-yl)-2,2′-dimethyl-[1,1′-biphenyl]-3-yl)benzo[d]oxazol-5-yl)methyl)-L-proline] are 19 nM, 80.9 ng/mL, 221 ng/mL and 214 ng/mL.
In the case of `Cc1c(-c2ccc(CN3CC(C)(C)C3)c(F)c2)cccc1-c1cccc(-c2nc3cc(CN4CCC[C@H]4C(=O)O)c(OC(F)F)cc3o2)c1C` [Example 237, ((6-(difluoromethoxy)-2-(4″-((3,3-dimethylazetidin-1-yl)methyl)-3″-fluoro-2,2′-dimethyl-[1,1′:3′,1″-terphenyl]-3-yl)benzo[d]oxazol-5-yl)methyl)-L-proline], at PD-1/PD-L1 (numeric values), the IC50 came to 2.7 nM. Moreover, in data set [1], the concentration at 0.5 h came to 58.5 ng/mL, the concentration at 2 h was 178 ng/mL and the concentration at 4 h is 186 ng/mL.
As to `COc1nc(-c2cccc(-c3cccc(-c4nc5cc(CN6CCC[C@H]6C(=O)O)c(OC(F)F)cc5o4)c3C)c2C)cnc1CN1CCCC1` [Example 285, ((6-(difluoromethoxy)-2-(3′-(6-methoxy-5-(pyrrolidin-1-ylmethyl)pyrazin-2-yl)-2,2′-dimethyl-[1,1′-biphenyl]-3-yl)benzo[d]oxazol-5-yl)methyl)-L-proline], the IC50 on PD-1/PD-L1 (range symbols) lay within 0.1 to 5 nM. Further, in data set [1], the concentration at 0.5 h was 39.1 ng/mL, the concentration at 2 h is 80 ng/mL and the concentration at 4 h was 41.8 ng/mL.
Consider `Cc1c(-c2ccc3c(c2)CCNC3)cccc1-c1cccc(-c2nc3cc(CN4CCC[C@H]4C(=O)O)c(OC(F)F)cc3o2)c1C` [Example 288, ((6-(difluoromethoxy)-2-(2,2′-dimethyl-3′-(1,2,3,4-tetrahydroisoquinolin-6-yl)-[1,1′-biphenyl]-3-yl)benzo[d]oxazol-5-yl)methyl)-L-proline], for which the IC50 on PD-1/PD-L1 (numeric values) came to 1.5 nM. In data set [1], this compound came in with a concentration at 0.5 h of 8.36 ng/mL, a concentration at 2 h of 25.4 ng/mL and a concentration at 4 h of 9.68 ng/mL.
At PD-1/PD-L1 (range symbols), `Cc1c(-c2nc3cc(CN4CCC[C@H]4C(=O)O)c(OC(F)F)cc3o2)cccc1-c1cccc(-c2nc3cc(CN(C)CC#N)cc(C#N)c3o2)c1C` [Example 136, ((2-(3′-(7-cyano-5-(((cyanomethyl) (methyl)amino)methyl)benzo [d]oxazol-2-yl)-2,2′-dimethyl-[1,1′-biphenyl]-3-yl)-6-(difluoromethoxy)benzo[d]oxazol-5-yl)methyl)-L-proline] yielded an IC50 of 0.1 to 5 nM. In data set [1], this compound returned a concentration at 0.5 h of 673 ng/mL, a concentration at 2 h of 736 ng/mL and a concentration at 4 h of 545 ng/mL.
For `Cc1c(-c2nc3cc(CN4CCC[C@H]4C(=O)O)c(OC(F)F)cc3o2)cccc1-c1cccc(-c2ccc(CN3CCCC3)cc2Cl)c1C` [Example 231, ((2-(2″-chloro-2,2′-dimethyl-4″-(pyrrolidin-1-ylmethyl)-[1,1′:3′,1″-terphenyl]-3-yl)-6-(difluoromethoxy)benzo[d]oxazol-5-yl)methyl)-L-proline], the IC50 on PD-1/PD-L1 (numeric values) amounted to 78 nM. In data set [1], this compound had a concentration at 0.5 h of 36.9 ng/mL, a concentration at 2 h of 160 ng/mL and a concentration at 4 h of 156 ng/mL.
With `Cc1c(-c2nc3cc(CN(C)[C@@H]4CCC[C@H]4O)c(OC(F)F)cc3o2)cccc1-c1cccc(-c2nc3cc(CN4CCC[C@H]4C(=O)O)c(OC(F)F)cc3o2)c1C` [Example 57, ((6-(difluoromethoxy)-2-(3′-(6-(difluoromethoxy)-5-((((1R,2R)-2-hydroxycyclopentyl) (methyl)amino)methyl)benzo[d]oxazol-2-yl)-2,2′-dimethyl-[1,1′-biphenyl]-3-yl)benzo[d]oxazol-5-yl)methyl)-L-proline], the IC50 at PD-1/PD-L1 (numeric values) came to 1.2 nM. For the same compound, in data set [1], the concentration at 0.5 h was determined as 27.1 ng/mL, the concentration at 2 h stood at 149 ng/mL and the concentration at 4 h turned out to be 90 ng/mL.
As to `Cc1c(-c2nc3cc(CN4CCOCC4)c(OC(F)F)cc3o2)cccc1-c1cccc(-c2nc3cc(CN4CCC[C@H]4C(=O)O)c(OC(F)F)cc3o2)c1C` [Example 13, ((6-(difluoromethoxy)-2-(3′-(6-(difluoromethoxy)-5-(morpholinomethyl)benzo[d]oxazol-2-yl)-2,2′-dimethyl-[1,1′-biphenyl]-3-yl)benzo[d]oxazol-5-yl)methyl)-L-proline], at PD-1/PD-L1 (numeric values), the IC50 amounted to 26 nM. In data set [1], this compound came in with a concentration at 0.5 h of 79.3 ng/mL, a concentration at 2 h of 241 ng/mL and a concentration at 4 h of 301 ng/mL.
At PD-1/PD-L1 (range symbols), `COc1nc(-c2cccc(-c3cccc(-c4nc5cc(CN6CCC[C@H]6C(=O)O)c(OC(F)F)cc5o4)c3C)c2C)cnc1CN1CC[C@@H](C)C1` [Example 286, ((6-(difluoromethoxy)-2-(3′-(6-methoxy-5-(((R)-3-methylpyrrolidin-1-yl)methyl)pyrazin-2-yl)-2,2′-dimethyl-[1,1′-biphenyl]-3-yl)benzo[d]oxazol-5-yl)methyl)-L-proline] gave an IC50 of 0.1 to 5 nM. In data set [1], this compound yielded a concentration at 0.5 h of 20.5 ng/mL, a concentration at 2 h of 73.8 ng/mL and a concentration at 4 h of 52.2 ng/mL.
`Cc1c(-c2nc3cc(CNCC(O)C(F)(F)F)c(OC(F)F)cc3o2)cccc1-c1cccc(-c2nc3cc(CN4CCC[C@H]4C(=O)O)c(OC(F)F)cc3o2)c1C` (stereo partly drawn) [Example 22, ((6-(difluoromethoxy)-2-(3′-(6-(difluoromethoxy)-5-(((3,3,3-trifluoro-2-hydroxypropyl)amino)methyl)benzo[d]oxazol-2-yl)-2,2′-dimethyl-[1,1′-biphenyl]-3-yl)benzo[d]oxazol-5-yl)methyl)-L-proline] came in with an IC50 at PD-1/PD-L1 (numeric values) of 25 nM. In data set [1], the concentration at 0.5 h is 68.6 ng/mL, the concentration at 2 h was found to be 155 ng/mL and the concentration at 4 h stood at 81.1 ng/mL.
The compound `C#CC1(O)CN(Cc2cc(C#N)c3oc(-c4cccc(-c5cccc(-c6nc7cc(CN8CCC[C@H]8C(=O)O)c(OC(F)F)cc7o6)c5C)c4C)nc3c2)C1` [Example 144, ((2-(3′-(7-cyano-5-((3-ethynyl-3-hydroxyazetidin-1-yl)methyl)benzo[d]oxazol-2-yl)-2,2′-dimethyl-[1,1′-biphenyl]-3-yl)-6-(difluoromethoxy)benzo[d]oxazol-5-yl)methyl)-L-proline] came in with an IC50 at PD-1/PD-L1 (range symbols) of 0.1 to 5 nM. In data set [1], this compound had a concentration at 0.5 h of 243 ng/mL, a concentration at 2 h of 386 ng/mL and a concentration at 4 h of 222 ng/mL.
Compound `Cc1c(-c2nc3c(o2)CCN(CC#N)C3)cccc1-c1cccc(-c2nc3cc(CN4CCC[C@H]4C(=O)O)c(OC(F)F)cc3o2)c1C` [Example 195, ((2-(3′-(5-(cyanomethyl)-4,5,6,7-tetrahydrooxazolo[4,5-c]pyridin-2-yl)-2,2′-dimethyl-[1,1′-biphenyl]-3-yl)-6-(difluoromethoxy)benzo[d]oxazol-5-yl)methyl)proline] had an IC50 on PD-1/PD-L1 (range symbols) of 5 to 50 nM. In data set [1], this compound returned a concentration at 0.5 h of 256 ng/mL, a concentration at 2 h of 255 ng/mL and a concentration at 4 h of 125 ng/mL.
`Cc1c(-c2nc3c(o2)CCN(CC(F)F)C3)cccc1-c1cccc(-c2nc3cc(CN4CCC[C@H]4C(=O)O)c(OC(F)F)cc3o2)c1C` [Example 201, ((2-(3′-(5-(2,2-difluoroethyl)-4,5,6,7-tetrahydrooxazolo[4,5-c]pyridin-2-yl)-2,2′-dimethyl-[1,1′-biphenyl]-3-yl)-6-(difluoromethoxy)benzo[d]oxazol-5-yl)methyl)proline] registered an IC50 at PD-1/PD-L1 (range symbols) of more than 50 nM. In data set [1], the concentration at 0.5 h was 428 ng/mL, the concentration at 2 h was determined as 792 ng/mL and the concentration at 4 h amounted to 527 ng/mL.
The compound `C=C1CN(Cc2cc3nc(-c4cccc(-c5cccc(-c6nc7cc(CN8CCC[C@H]8C(=O)O)c(OC(F)F)cc7o6)c5C)c4C)oc3cc2OC(F)F)C1` [Example 81, ((6-(difluoromethoxy)-2-(3′-(6-(difluoromethoxy)-5-((3-methyleneazetidin-1-yl)methyl)benzo[d]oxazol-2-yl)-2,2′-dimethyl-[1,1′-biphenyl]-3-yl)benzo[d]oxazol-5-yl)methyl)-L-proline] came in with an IC50 at PD-1/PD-L1 (range symbols) of 5 to 50 nM. In data set [1], this compound came in with a concentration at 0.5 h of 115 ng/mL, a concentration at 2 h of 468 ng/mL and a concentration at 4 h of 383 ng/mL.

Usually IC50 stands for the point on the concentration scale where inhibition reaches its midpoint. Read a low IC50 as greater potency.
